Patent US20110152333A1, “3-CYANOPYRROLIDINYL-PHENYL-OXAZOLIDINONES AS ANTIBACTERIAL AGENTS” (FERRER INTERNACIONAL, S.A., priority 2008, published 2011)
Values after ≈ are worked out from the molar mass of the structure shown. Where two headings read alike, the source gives them in different places.

Assays:
S. aureus ATCC25923 MS = assay: MIC, micro dilution (NCCLS M7-A5); assay type: cell-based, Staphylococcus aureus
[1] = system: S. pneumoniae ATCC49619 PR; assay: MIC, micro dilution (NCCLS M7-A5); assay type: cell-based, Streptococcus pneumoniae
E. faecium ATCC51559 MDR = assay: MIC, micro dilution (NCCLS M7-A5); assay type: cell-based, Enterococcus faecium
E. faecium LNZ-R LR-4 = assay: MIC, micro dilution (NCCLS M7-A5); assay type: cell-based, Enterococcus faecium
[2] = system: S. aureus clinical strain cfr. methylase; assay: MIC, micro dilution (NCCLS M7-A5); assay type: cell-based; conditions: Staphylococcus aureus, Table 2
S. aureus 1199 = assay: MIC, micro dilution (NCCLS M7-A5); assay type: cell-based; conditions: Staphylococcus aureus, Table 2
S. aureus 199B = assay: MIC, micro dilution (NCCLS M7-A5); assay type: cell-based; conditions: Staphylococcus aureus, Table 2
MRSE = assay: MIC, micro dilution (NCCLS M7-A5); assay type: cell-based; conditions: Staphylococcus epidermidis, Table 2
MRSE-128 = assay: MIC, micro dilution (NCCLS M7-A5); assay type: cell-based; conditions: Table 2
S. Haemolyticus = assay: MIC, micro dilution (NCCLS M7-A5); assay type: cell-based; conditions: Staphylococcus haemolyticus, Table 2
E. faecalis ECFL-1 = assay: MIC, micro dilution (NCCLS M7-A5); assay type: cell-based; conditions: Enterococcus faecalis, ECFL1, Table 2
E. faecalis ECFL-1-128 = assay: MIC, micro dilution (NCCLS M7-A5); assay type: cell-based; conditions: Enterococcus faecalis, ECFL1128, Table 2
E. faecalis ECFL-2 = assay: MIC, micro dilution (NCCLS M7-A5); assay type: cell-based; conditions: Enterococcus faecalis, ECFL2, Table 2
E. faecium ECFM-1 = assay: MIC, micro dilution (NCCLS M7-A5); assay type: cell-based; conditions: Enterococcus faecium, ECFM1, Table 2
E. faecium ECFM-1-128 = assay: MIC, micro dilution (NCCLS M7-A5); assay type: cell-based; conditions: Enterococcus faecium, ECFM1128, Table 2
E. faecium ECFM-2 = assay: MIC, micro dilution (NCCLS M7-A5); assay type: cell-based; conditions: Enterococcus faecium, ECFM2, Table 2
Staphyl. = assay: Geometric mean MIC, staphylococci; assay type: cell-based; conditions: Table 2, read-out: Geom. Mean MIC Staphyl.
Enteroc. = assay: Geometric mean MIC, enterococci; assay type: cell-based; conditions: Table 2, read-out: Geom. Mean MIC Enteroc.
Gram+ = assay: Geometric mean MIC, Gram+; assay type: cell-based; conditions: Table 2, read-out: Geom. Mean MIC Gram+
[3] = system: S. aureus ATCC33591 in vivo; assay: MIC, micro dilution (NCCLS M7-A5); assay type: cell-based; conditions: Staphylococcus aureus, Table 2
[4] = system: S. pneumoniae ATCC6303 in vivo; assay: MIC, micro dilution (NCCLS M7-A5); assay type: cell-based; conditions: Streptococcus pneumoniae, Table 2
S. aureus ATCC43300 MR = assay: MIC, micro dilution (NCCLS M7-A5); assay type: cell-based; conditions: Staphylococcus aureus, Table 2
[5] = system: S. aureus 1199B NorA overE; assay: MIC, micro dilution (NCCLS M7-A5); assay type: cell-based; conditions: Staphylococcus aureus
[6] = system: S. epidermidis ATCC12228 MR; assay: MIC, micro dilution (NCCLS M7-A5); assay type: cell-based; conditions: Staphylococcus epidermidis, Table 2
E. faecalis ATCC29212 = assay: MIC, micro dilution (NCCLS M7-A5); assay type: cell-based; conditions: Enterococcus faecalis, Table 2
[7] = system: E. faecalis ATCC51575 MDR; assay: MIC, micro dilution (NCCLS M7-A5); assay type: cell-based; conditions: Enterococcus faecalis, Table 2
E. faecium ATCC10541 = assay: MIC, micro dilution (NCCLS M7-A5); assay type: cell-based; conditions: Enterococcus faecium, Table 2
E. coli TG1 = assay: MIC, micro dilution (NCCLS M7-A5); assay type: cell-based; conditions: Escherichia coli, Table 2
E. coli KAM-3 = assay: MIC, micro dilution (NCCLS M7-A5); assay type: cell-based; conditions: Escherichia coli, KAM3, Table 2
S. aureus LNZ-R 432 = assay: MIC, micro dilution (NCCLS M7-A5); assay type: cell-based; conditions: Staphylococcus aureus, LNZR432, Table 1
H. influenzae ATCC49247 = assay: MIC, micro dilution (NCCLS M7-A5); assay type: cell-based, Haemophylus influenzae; conditions: Haemophilus influenzae, Table 1
[8] = system: B. fragilis sp. fragilis ATCC25285; assay: MIC, micro dilution (NCCLS M7-A5); assay type: cell-based; conditions: Bacteroides fragilis, Table 1, Brucella Blood medium for anaerobic strains
[9] = system: Moraxella catarrhalis HCI-78; assay: MIC, micro dilution (NCCLS M7-A5); assay type: cell-based; conditions: HCI78, Table 1, 5% CO2
[10] = system: Moraxella, Pasteurella and Bacteroides spp.; conditions: background; cited from earlier work
[11] = Enterococcus faecium, Table 2, read-out: MIC
[12] = Staphylococcus aureus, Table 1, read-out: MIC
[13] = Streptococcus pneumoniae, Table 1, 5% CO2, read-out: MIC
[14] = Enterococcus faecium, Table 1, read-out: MIC

Row | SMILES | MIC [2] [µg/mL] | MIC (S. aureus 1199) [µg/mL] | MIC (S. aureus 199B) [µg/mL] | MIC (MRSE) [µg/mL] | MIC (MRSE-128) [µg/mL] | MIC (S. Haemolyticus) [µg/mL] | MIC (E. faecalis ECFL-1) [µg/mL] | MIC (E. faecalis ECFL-1-128) [µg/mL] | MIC (E. faecalis ECFL-2) [µg/mL] | MIC (E. faecium ECFM-1) [µg/mL] | MIC (E. faecium ECFM-1-128) [µg/mL] | MIC (E. faecium ECFM-2) [µg/mL] | MIC (Staphyl.) [µg/mL] | MIC (Enteroc.) [µg/mL] | MIC [3] [µg/mL] | MIC [4] [µg/mL] | MIC (S. aureus ATCC43300 MR) [µg/mL] | MIC [5] [µg/mL] | MIC [6] [µg/mL] | MIC (E. faecalis ATCC29212) [µg/mL] | other results
1 | CC(=O)NC[C@H]1CN(c2ccc(N3CCC(O)C3)c(F)c2)C(=O)O1 (stereo partly drawn) [Ex. 5, (S)—N-[[3-[4-(3-hydroxypyrrolidinyl)-3-fluorophenyl]-2-oxo-5-oxazolidinyl]methyl]acetamide, reference compound] | 16 (≈ 47.4 µM) | 2 (≈ 5.93 µM) | 2 (≈ 5.93 µM) | 1 (≈ 2.96 µM) | 32 (≈ 94.9 µM) | 32 (≈ 94.9 µM) | 2 (≈ 5.93 µM) | 64 (≈ 190 µM) | 4 (≈ 11.9 µM) | 2 (≈ 5.93 µM) | 64 (≈ 190 µM) | 2 (≈ 5.93 µM) | 1.2 (≈ 3.56 µM) | 1.7 (≈ 5.04 µM) | 2 (≈ 5.93 µM) | 0.5 (≈ 1.48 µM) | 1 (≈ 2.96 µM) | 1 (≈ 2.96 µM) | 1 (≈ 2.96 µM) | 2 (≈ 5.93 µM) | MIC (S. aureus ATCC25923 MS; Staphylococcus aureus, Table 2, read-out: MIC): 2 µg/mL (≈ 5.93 µM); MIC ([1]; Streptococcus pneumoniae, Table 2, read-out: MIC): 1 µg/mL (≈ 2.96 µM); MIC (E. faecium ATCC51559 MDR; [11]): 1 µg/mL (≈ 2.96 µM); MIC (E. faecium LNZ-R LR-4; [11]): 32 µg/mL (≈ 94.9 µM); MIC (Gram+): 1.4 µg/mL (≈ 4.15 µM); MIC [7]: 2 µg/mL (≈ 5.93 µM); MIC (E. faecium ATCC10541): 2 µg/mL (≈ 5.93 µM); MIC (E. coli TG1): 64 µg/mL (≈ 190 µM); MIC (E. coli KAM-3): 4 µg/mL (≈ 11.9 µM)
2 | CC(=O)NC[C@H]1CN(c2ccc(N3CCOCC3)c(F)c2)C(=O)O1 [Linezolid, N-[[(5S)-3-[3-fluoro-4-(4-morpholinyl)phenyl]-2-oxo-5-oxazolidinyl]methyl]acetamide, reference compound] |  |  |  |  |  |  |  |  |  |  |  |  |  |  |  |  |  |  |  |  | MIC (S. aureus ATCC25923 MS; [12]): 1 µg/mL (≈ 2.96 µM); MIC [1, 13]: 1 µg/mL (≈ 2.96 µM); MIC (E. faecium ATCC51559 MDR; [14]): 0.5 µg/mL (≈ 1.48 µM); MIC (S. aureus LNZ-R 432): 16 to 32 µg/mL (≈ 47.4 to 94.9 µM); MIC (H. influenzae ATCC49247): 16 µg/mL (≈ 47.4 µM); MIC [8]: 2 µg/mL (≈ 5.93 µM); MIC [9]: 2 µg/mL (≈ 5.93 µM); MIC (E. faecium LNZ-R LR-4; [14]): 64 µg/mL (≈ 190 µM); MICs [10]: 2 to 8 µg/mL
3 | CC(=O)NC[C@H]1CN(c2ccc(N3CCC(C#N)C3)c(F)c2)C(=O)O1 (stereo partly drawn) [Ex. 1, N-{(5S)-3-[3-fluoro-4-(3-cyanopyrrolidin-1-yl)phenyl]-2-oxo-5-oxazolidinylmethyl}acetamide] | 4 (≈ 11.5 µM) | 1 (≈ 2.89 µM) | 1 (≈ 2.89 µM) | 0.25 (≈ 0.722 µM) | 8 (≈ 23.1 µM) | 8 (≈ 23.1 µM) | 0.125 (≈ 0.361 µM) | 32 (≈ 92.4 µM) | 1 (≈ 2.89 µM) | 0.5 (≈ 1.44 µM) | 32 (≈ 92.4 µM) | 0.5 (≈ 1.44 µM) | 0.4 (≈ 1.15 µM) | 0.3 (≈ 0.866 µM) | 0.25 (≈ 0.722 µM) | 0.25 (≈ 0.722 µM) | 0.5 (≈ 1.44 µM) | 0.5 (≈ 1.44 µM) | 0.25 (≈ 0.722 µM) | 0.25 (≈ 0.722 µM) | MIC (S. aureus ATCC25923 MS; [12]): 0.5 µg/mL (≈ 1.44 µM); MIC (S. aureus ATCC25923 MS; Table 2): 0.5 µg/mL (≈ 1.44 µM); MIC [1, 13]: 0.25 µg/mL (≈ 0.722 µM); MIC ([1]; Table 2): 0.25 µg/mL (≈ 0.722 µM); MIC (E. faecium ATCC51559 MDR; [14]): 0.25 µg/mL (≈ 0.722 µM); MIC (E. faecium ATCC51559 MDR; Table 2): 0.25 µg/mL (≈ 0.722 µM); MIC (S. aureus LNZ-R 432): 4 µg/mL (≈ 11.5 µM); MIC (H. influenzae ATCC49247): 4 µg/mL (≈ 11.5 µM); MIC [8]: 0.5 µg/mL (≈ 1.44 µM); MIC [9]: 2 µg/mL (≈ 5.77 µM); MIC (E. faecium LNZ-R LR-4; [14]): 8 µg/mL (≈ 23.1 µM); MIC (E. faecium LNZ-R LR-4; Table 2): 8 µg/mL (≈ 23.1 µM); MIC [7]: 0.25 µg/mL (≈ 0.722 µM); MIC (E. faecium ATCC10541): 0.25 µg/mL (≈ 0.722 µM); MIC (E. coli TG1): 32 µg/mL (≈ 92.4 µM); MIC (E. coli KAM-3): 1 µg/mL (≈ 2.89 µM)
